# Calls of active or inactive are those of the source. The calls are words filed in the database; no cut-off is given here.
# Key:
# [1] = species on record: Homo sapiens; experiment: Inhibition of MAGI3-PTEN interaction assessed as activation of PKB at 5 uM
# [2] = species on record: Homo sapiens; experiment: Inhibition of MAGI3-PTEN interaction at 10 uM
# [3] = system: HCT-116; experiment: Effect on HCT116 cells expressing wild-type PTEN assessed as 2-fold increase in PKB activity at 50 uM; assay type: functional, cell-based; conditions: Homo sapiens
# [4] = target: Cystic fibrosis transmembrane conductance regulator (Homo sapiens) (UniProt P13569); experiment: Inhibition of […]-mediated chloride transport in human bronchial epithelial cells by voltage clamp method; assay type: cell-based; conditions: Epithelial cell
# [5] = system: HEK293; experiment: Inhibition of receptor recycling in HEK293 cells assessed as reduction of adrenergic beta-2 receptor expression; assay type: functional, cell-based; conditions: Homo sapiens
# [6] = Solubility in water; assay type: physicochemical
# [7] = species on record: Homo sapiens; experiment: Displacement of peptide probe from MAGI3 PDZ2 domain by fluorescent polarization method
# Sequence of Cystic fibrosis transmembrane conductance regulator (Homo sapiens) (P13569 whole entry, looked up): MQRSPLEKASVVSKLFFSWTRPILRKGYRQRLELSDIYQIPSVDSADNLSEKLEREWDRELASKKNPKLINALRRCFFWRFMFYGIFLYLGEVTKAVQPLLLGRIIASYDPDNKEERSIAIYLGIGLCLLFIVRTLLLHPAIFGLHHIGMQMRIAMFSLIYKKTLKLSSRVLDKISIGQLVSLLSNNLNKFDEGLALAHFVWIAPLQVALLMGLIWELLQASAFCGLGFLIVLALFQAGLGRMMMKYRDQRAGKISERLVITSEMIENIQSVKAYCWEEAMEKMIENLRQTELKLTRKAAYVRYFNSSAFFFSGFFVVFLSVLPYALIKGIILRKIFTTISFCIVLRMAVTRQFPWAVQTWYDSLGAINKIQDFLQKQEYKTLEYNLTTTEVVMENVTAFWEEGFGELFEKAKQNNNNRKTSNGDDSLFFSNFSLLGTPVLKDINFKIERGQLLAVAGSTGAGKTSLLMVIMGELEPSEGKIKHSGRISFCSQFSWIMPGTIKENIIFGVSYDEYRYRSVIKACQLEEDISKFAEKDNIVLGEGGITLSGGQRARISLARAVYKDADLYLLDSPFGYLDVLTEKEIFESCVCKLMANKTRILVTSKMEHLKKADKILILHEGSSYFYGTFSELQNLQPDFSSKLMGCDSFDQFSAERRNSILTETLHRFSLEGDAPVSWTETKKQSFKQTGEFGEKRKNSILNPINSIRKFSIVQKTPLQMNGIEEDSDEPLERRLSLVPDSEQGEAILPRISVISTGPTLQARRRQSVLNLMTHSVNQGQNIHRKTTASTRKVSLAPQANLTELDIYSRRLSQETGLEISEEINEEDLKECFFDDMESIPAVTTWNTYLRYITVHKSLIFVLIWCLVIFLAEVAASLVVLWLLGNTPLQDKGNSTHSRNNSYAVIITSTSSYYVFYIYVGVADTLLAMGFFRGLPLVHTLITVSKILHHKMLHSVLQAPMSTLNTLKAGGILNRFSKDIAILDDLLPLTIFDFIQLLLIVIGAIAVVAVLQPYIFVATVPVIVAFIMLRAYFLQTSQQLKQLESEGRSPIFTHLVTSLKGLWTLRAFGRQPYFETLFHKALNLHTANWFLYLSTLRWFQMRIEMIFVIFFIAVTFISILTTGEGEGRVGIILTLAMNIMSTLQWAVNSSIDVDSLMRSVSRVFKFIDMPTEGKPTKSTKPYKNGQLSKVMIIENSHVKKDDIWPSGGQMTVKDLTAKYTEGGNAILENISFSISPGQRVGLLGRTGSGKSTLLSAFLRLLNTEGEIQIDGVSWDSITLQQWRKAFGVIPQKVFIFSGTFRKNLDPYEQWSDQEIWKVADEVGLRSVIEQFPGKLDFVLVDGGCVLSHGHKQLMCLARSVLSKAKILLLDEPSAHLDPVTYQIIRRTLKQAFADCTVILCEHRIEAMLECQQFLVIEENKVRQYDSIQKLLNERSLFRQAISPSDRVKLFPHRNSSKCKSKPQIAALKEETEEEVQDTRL
Activity [1],inhibition [2] [%],Activity [4],solubility [6] [mM],Activity [7],SMILES,Activity [3],Activity [5]
Active,50,–,–,–,CCCCCc1c(CO)c2cc(C)c(C(=O)O)cc2n1CCc1ccccc1,–,–
–,–,Dose-dependent effect,> 30,Active,CCCCC(O)c1cc2cc(C)c(C(=O)[O-])cc2n1CCc1ccccc1.[Na+] (configuration not stated),Active,Dose-dependent effect

# — ChEMBL document CHEMBL1138384, “Rational design of a nonpeptide general chemical scaffold for reversible inhibition of PDZ domain interactions” (Bioorg Med Chem Lett, 2007)
